The experiment deals with T1, Prostaglandin G/H synthase 2 (Homo sapiens, UniProt P35354).
T1 sequence (P35354 whole entry): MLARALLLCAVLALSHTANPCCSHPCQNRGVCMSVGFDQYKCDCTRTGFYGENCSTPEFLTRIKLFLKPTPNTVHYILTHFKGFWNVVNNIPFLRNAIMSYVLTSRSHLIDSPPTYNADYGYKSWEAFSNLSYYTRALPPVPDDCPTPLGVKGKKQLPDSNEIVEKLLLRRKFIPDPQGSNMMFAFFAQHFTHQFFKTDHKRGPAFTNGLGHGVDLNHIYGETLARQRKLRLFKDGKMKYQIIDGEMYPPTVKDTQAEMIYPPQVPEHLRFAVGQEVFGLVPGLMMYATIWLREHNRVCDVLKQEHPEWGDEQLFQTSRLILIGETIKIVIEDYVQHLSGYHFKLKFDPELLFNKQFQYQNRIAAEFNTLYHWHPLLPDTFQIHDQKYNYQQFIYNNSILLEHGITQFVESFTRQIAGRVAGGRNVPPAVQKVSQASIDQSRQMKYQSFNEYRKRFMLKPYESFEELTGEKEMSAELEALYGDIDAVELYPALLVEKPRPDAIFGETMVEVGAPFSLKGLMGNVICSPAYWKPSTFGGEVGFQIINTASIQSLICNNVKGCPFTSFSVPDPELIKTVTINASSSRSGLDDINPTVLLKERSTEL
The experiment in a line: Inhibition of COX2 in Homo sapiens (human) whole blood.
As a reminder, the IC50 is the midpoint of a concentration-inhibition curve. A lower IC50 goes with inhibition by little substance. In turn, `Cn1cccc1CCCNc1cc(C(F)(F)F)nc(-c2ccc(S(C)(=O)=O)cc2)n1` registered an IC50 of 3.98 µM. In turn, `CS(=O)(=O)c1ccc(-c2nc(NC3CC=CCC3)cc(C(F)(F)F)n2)cc1` (centres undefined) displayed an IC50 of 0.0329 µM.

Molecule `CS(=O)(=O)c1ccc(-c2nc(NCCCc3cccs3)cc(C(F)(F)F)n2)cc1` registered an IC50 of 1.21 µM.

As for `NS(=O)(=O)c1ccc(-c2nc(NCc3ccccc3)cc(C(F)(F)F)n2)cc1`, the half-maximal inhibitory concentration (IC50) was 3.33 µM.
